According to US10202408B2, “Prodrugs and methods of use thereof” (Health Innovation Ventures B.V., priority 2012, dated 2019):

Tests used:
[1] = system: HCT116, H460, H1299 and SiHa wild type cancer cell lines; assay: Oxic versus anoxic low cell density IC50 assay, wild type cancer cell lines; format: cell-based, human; conditions: 4 h anoxia during prodrug exposure versus oxic
Procedure: (§1) Compounds were subjected to testing, including low-cell density cytotoxicity assay. Cells (500 cells/well) were seeded in 96-well plates and exposed to prodrug for 4 h, washed, then left to grow for a further 5 days. The SRB assay was employed to determine IC50 values (concentration of prodrug required to inhibit proliferation by 50%). Parental HCT116 cells (HCT116 is a cell line derived from human colon cancer) and cells expressing the example nitroreductase gene nfsA from Escherichia coli were evaluated head-to-head. Parental H1299 cells (H1299 is a cell line derived from lung cancer) and cells expressing the example nitroreductase gene nfsA from Escherichia coli were evaluated head-to-head. Parental HCT116 cells and cells expressing human AKR1C3 were evaluated head-to-head. Parental H1299 cells and cells expressing human AKR1C3 were evaluated head-to-head. In a variation of these assays test compounds were assessed for their ability to give hypoxia-selective cell killing. Here wild type HCT116, H460 (H460 is a cell line derived from lung cancer), H1299 and SiHa cells (SiHa is a cell line derived from cervical cancer) were used in addition to HCT116 cells engineered to over express cytochrome P450 reductase (HCT116 POR), a human one-electron nitroreductase. Low-cell density cytotoxicity assays were performed as above under oxic conditions and compared to experiments where cells were shown 4 h of anoxia during the prodrug exposure period, before being washed free of prodrug and then left to grow for a further 5 days under oxic conditions, as above.

[2] = system: bacterial nitroreductases from the NfsA and NfsB families; assay: GFP SOS assay with nitroreductase over-expression library; format: cell-based, E. coli strain SOS-R4; conditions: single and poly mutated variants of NfsA_Ec, single-mutated variant of NfsA_Bs
[3] = system: HCT116 cells engineered to over-express E coli NfsA; assay: Low cell density IC50 (SRB) assay, HCT116 wild type versus E coli NfsA over-expressing cells; format: cell-based, human
Procedure: as §1

[4] = system: HCT116 cells engineered to over-express human aldo-ketoreductase 1C3 (AKR1C3); assay: Low cell density IC50 (SRB) assay, HCT116 wild type versus AKR1C3 over-expressing cells; format: cell-based; conditions: 4 h exposure
Procedure: as §1

[5] = system: HCT116 MCLs with 3% E coli NfsA-expressing cells; assay: MCL clonogenic bystander assay, HCT116 MCLs seeded with 3% E coli NfsA-expressing cells; format: cell-based, human; conditions: 97% wild type HCT116, 3% E coli NfsA-expressing cells
Procedure: (§2) In parallel, a three dimensional high-cell density multi-cellular layer (MCL) clonogenic assay was performed. 1×10^6 cells of either 100% HCT-116^WT or containing 97% WT with a minor 3% HCT-116^NTR cell population were seeded into a collagen-coated Teflon microporous membrane and left to grow for 3 days. MCLs were then exposed to prodrug for 5 h. After treatment, MCLs were enzyme dissociated, diluted in fresh medium and plated to determine clonogenic survival. To discriminate clonogenic activator (NTR+) from target (NTR−) colonies, cells were plated in non-selective medium (total cells) and medium containing 1 μM puromycin (activator cells). Colonies were grown for 10 days before staining. Colonies containing >50 cells were counted. A variation of this assay was also used to assess for evidence of AKR1C3-dependent cytotoxicity. Here either 100% HCT-116W^T or 100% HCT-116^AKR1C3 cells were seeded to provide MCLs that were then exposed to prodrug.

[6] = system: HCT116 MCLs over-expressing AKR1C3; assay: Multicellular layer (MCL) clonogenic assay, HCT116 wild type versus AKR1C3 over-expressing MCLs; format: cell-based, human
Procedure: as §2

[7] = system: H1299 cells engineered to over-express E coli NfsA; assay: Low cell density IC50 (SRB) assay, H1299 wild type versus E coli NfsA over-expressing cells; format: cell-based, human
Procedure: as §1

[8] = system: bacterial nitroreductases from the NfsA and NfsB families; assay: GFP SOS assay with nitroreductase over-expression library; format: cell-based, E. coli strain SOS-R4; conditions: 55 candidate nitroreductase library, 6 h challenge
Description: The method employed the over-expression of a candidate nitroreductase gene from plasmid pUCX in an SOS reporter strain, as first described in Prosser et al., 2010, Biochem Pharmacol 79, 678-687. In order to enhance the sensitivity of the SOS reporter system, an sfiA::GFP reporter construct was integrated into a CDF-based plasmid (which contains a compatible origin of replication with pUCX) to give the pANODuet reporter plasmid for GFP screening. In addition, nfsA, nfsB, azoR, and nemA genes were deleted to minimise background metabolism, and the tolC gene deleted to minimise efflux of test compounds; this strain was designated SOS-R3. Further improvements were obtained by deleting the mdaB, ycaK, and yieF genes to minimise background metabolism, and by introducing transcriptional terminators to the pANODUET reporter plasmid. This final reporter strain was designated SOS-R4.
Stored glycerols of the 55-membered nitroreductase library in SOS-R4 were thawed and used to inoculate overnight cultures (Lysogeny Broth (LB) amended with 100 μg ml^−1 Ampicillin, 50 μg ml^−1 Spectinomycin, 0.4% glucose) that were incubated at 30° C., 200 rpm for 16 h. The next morning the GFP-SOS assay was commenced by inoculation of 195 μl fresh assay media (LB+100 μg ml^−1 Ampicillin, 50 μg ml^−1 Spectinomycin, 0.2% glucose, 50 μM IPTG) with 15 μl of overnight culture in individual wells of a 96-well plate. Plates were incubated at 30° C., 200 rpm for 2.5 h (pre-challenge period), following which cultures were diluted 1:2 by splitting 50:50 into fresh assay media (+DMSO to 0.5% final concentration) and fresh challenge media (assay media+drug to desired concentration, DMSO to 0.5% final concentration) to final volumes of 80 μl apiece in duplicate on a 384-well plate. Plates were incubated at 30° C., 200 rpm for 6 h (challenge period). GFP expression was determined at excitation 488 nm/emission 509 nm. Turbidity was determined by OD600 and fluorescence data from any replicates not found to be within 15% of the median culture turbidity were discarded.

[9] = system: H1299 cells engineered to over-express human aldo-ketoreductase 1C3 (AKR1C3); assay: Low cell density IC50 (SRB) assay, H1299 wild type versus AKR1C3 over-expressing cells; format: cell-based; conditions: 4 h exposure
Procedure: as §1

[10] = system: 15% E coli NfsA-expressing H1299 xenografts; assay: Tumour growth delay, 15% E coli NfsA-expressing H1299 xenografts; format: in vivo, NIH-III mice; conditions: for E coli NfsA mediated anti-tumour efficacy (mean tumour volume): 500 umol/kg twice daily (BID), total 1000 umol/kg; for tumour growth delay: mixed HCT116 and H1299 xenografts, 15% E coli NfsA cells, single (or BID) intraperitoneal dose
Procedure: Animals weighed 18-25 g at the time of tumour inoculation. Tumours were grown subcutaneously on the right flank of mice by inoculating cells grown in tissue culture (1×10^7 cells in 100 uL serum free α-MEM). Tumour sizes were monitored three times weekly using electronic callipers and treatments were initiated once tumour diameter reached ≥7 mm.
Tumour bearing mice were randomised into the appropriate treatment groups and tumour size and body weight recorded. Test compounds were formulated on the day of the experiment and kept in foil-wrapped tubes out of direct fluorescent light. If recruitment of animals occurred over multiple days, the drug stocks were aliquoted into tubes and frozen once at […] until required. Mice were treated with a single (or BID) dose of prodrug by intraperitoneal injection and thereafter tumour size and body weight was monitored every second day. Tumour volume was calculated as π (l×w×w)/6, where l is the major axis and w is the perpendicular minor axis. Animals were culled when they had reached the appropriate survival endpoint or when body weight loss exceeded 20% of the pre-treatment value.

[11] = system: wild type SiHa tumour xenografts; assay: Excision assay with and without radiation, wild type SiHa tumour xenografts; format: in vivo, NIH-III nude mice
Procedure: Tumours were grown subcutaneously in the flank of NIH-III mice by inoculating cells grown in tissue culture. Tumours were monitored using electronic calipers. When tumours reached treatment size, mice were randomized to treatment groups (five to seven per group). Compounds were given as single (or BID) intraperitoneal doses alone or 5 min after whole body irradiation (^60Co source). Eighteen hours after treatment, tumours were excised, weighed, minced, dissociated enzymatically, and plated to determine clonogenicity. Clonogens/gram of tissue were calculated relative to controls and effects of treatment were tested for significance (ANOVA with Dunnett's).

CCS(=O)(=O)c1cc([N+](=O)[O-])c(C(=O)N(C)CCO)cc1N(CCBr)CCBr [compound 18, 5-(bis(2-bromoethyl)amino)-4-(ethylsulfonyl)-N-(2-hydroxyethyl)-N-methyl-2-nitrobenzamide]
hypoxia-dependent cytotoxicity [1]: increased cytotoxicity in cells under hypoxia
activity with mutated nitroreductase variants [2]: demonstrated
E coli NfsA-mediated cytotoxicity (IC50 wild type versus NfsA) [3]: produce E coli NfsA-mediated cytotoxicity
AKR1C3-mediated cytotoxicity (IC50 wild type versus AKR1C3) [4]: less susceptible to AKR1C3-mediated cytotoxicity than PR-104A
bystander cell killing in MCLs [5]: display evidence of metabolism by the 3% E coli NfsA-expressing cells with bystander cell killing of the 97% non-expressing neighbour cells
AKR1C3-dependent clonogenic cell kill in MCLs [6]: do not cause AKR1C3-dependant cytotoxicity
E coli NfsA-mediated cytotoxicity (IC50 wild type versus NfsA) [7]: produce E coli NfsA-mediated cytotoxicity
metabolism by bacterial nitroreductases (SOS response) [8]: substrates for multiple wild type and mutant bacterial nitroreductases from the NfsA and NfsB families

CCN1CCN(C(=O)c2cc(N(CCBr)CCBr)c(S(C)(=O)=O)cc2[N+](=O)[O-])CC1 [compound 23, (5-(bis(2-bromoethyl)amino)-4-(methylsulfonyl)-2-nitrophenyl)(4-ethylpiperazin-1-yl)methanone]
AKR1C3-mediated cytotoxicity (IC50 wild type versus AKR1C3) [9]: less susceptible to AKR1C3-mediated cytotoxicity than PR-104A
E coli NfsA mediated anti-tumour efficacy (mean tumour volume) [10]: display significant E coli NfsA mediated anti-tumour efficacy
tumour growth delay [10]: profound tumour growth delay
activity with mutated nitroreductase variants [2]: demonstrated
cell killing in combination with radiation versus radiation alone ([11]; HCT116 POR and wild type SiHa xenografts, 10 or 15Gy, single (or BID) intraperitoneal dose): increased cell killing above what could be achieved with radiation alone
hypoxic cell kill in vivo (log cell kill) ([11]; with or without 10Gy radiation, 22 at 422, 300 and 11 at 1330, 23 at 1000 umol/kg): significant hypoxic cell kill in vivo
E coli NfsA-mediated cytotoxicity (IC50 wild type versus NfsA) [3]: produce E coli NfsA-mediated cytotoxicity
AKR1C3-mediated cytotoxicity (IC50 wild type versus AKR1C3) [4]: less susceptible to AKR1C3-mediated cytotoxicity than PR-104A
bystander cell killing in MCLs [5]: display evidence of metabolism by the 3% E coli NfsA-expressing cells with bystander cell killing of the 97% non-expressing neighbour cells
AKR1C3-dependent clonogenic cell kill in MCLs [6]: do not cause AKR1C3-dependant cytotoxicity
E coli NfsA-mediated cytotoxicity (IC50 wild type versus NfsA) [7]: produce E coli NfsA-mediated cytotoxicity
metabolism by bacterial nitroreductases (SOS response) [8]: substrates for multiple wild type and mutant bacterial nitroreductases from the NfsA and NfsB families

CCN1CCN(C(=O)c2cc(N(CCBr)CCBr)c(S(=O)(=O)CC)cc2[N+](=O)[O-])CC1 [compound 26, (5-(bis(2-bromoethyl)amino)-4-(ethylsulfonyl)-2-nitrophenyl)(4-ethylpiperazin-1-yl)methanone]
AKR1C3-mediated cytotoxicity (IC50 wild type versus AKR1C3) [9]: less susceptible to AKR1C3-mediated cytotoxicity than PR-104A
E coli NfsA mediated anti-tumour efficacy (mean tumour volume) [10]: display significant E coli NfsA mediated anti-tumour efficacy
tumour growth delay [10]: profound tumour growth delay
activity with mutated nitroreductase variants [2]: demonstrated
E coli NfsA-mediated cytotoxicity (IC50 wild type versus NfsA) [3]: produce E coli NfsA-mediated cytotoxicity
AKR1C3-mediated cytotoxicity (IC50 wild type versus AKR1C3) [4]: less susceptible to AKR1C3-mediated cytotoxicity than PR-104A
bystander cell killing in MCLs [5]: display evidence of metabolism by the 3% E coli NfsA-expressing cells with bystander cell killing of the 97% non-expressing neighbour cells
AKR1C3-dependent clonogenic cell kill in MCLs [6]: do not cause AKR1C3-dependant cytotoxicity
E coli NfsA-mediated cytotoxicity (IC50 wild type versus NfsA) [7]: produce E coli NfsA-mediated cytotoxicity
metabolism by bacterial nitroreductases (SOS response) [8]: substrates for multiple wild type and mutant bacterial nitroreductases from the NfsA and NfsB families

CCS(=O)(=O)c1cc([N+](=O)[O-])c(C(=O)N2CCN(C(C)C)CC2)cc1N(CCBr)CCBr [compound 27, (5-(bis(2-bromoethyl)amino)-4-(ethylsulfonyl)-2-nitrophenyl)(4-isopropylpiperazin-1-yl)methanone]
AKR1C3-mediated cytotoxicity (IC50 wild type versus AKR1C3) [9]: less susceptible to AKR1C3-mediated cytotoxicity than PR-104A
activity with mutated nitroreductase variants [2]: demonstrated
E coli NfsA-mediated cytotoxicity (IC50 wild type versus NfsA) [3]: produce E coli NfsA-mediated cytotoxicity
AKR1C3-mediated cytotoxicity (IC50 wild type versus AKR1C3) [4]: less susceptible to AKR1C3-mediated cytotoxicity than PR-104A
bystander cell killing in MCLs [5]: display evidence of metabolism by the 3% E coli NfsA-expressing cells with bystander cell killing of the 97% non-expressing neighbour cells
AKR1C3-dependent clonogenic cell kill in MCLs [6]: do not cause AKR1C3-dependant cytotoxicity
E coli NfsA-mediated cytotoxicity (IC50 wild type versus NfsA) [7]: produce E coli NfsA-mediated cytotoxicity
metabolism by bacterial nitroreductases (SOS response) [8]: substrates for multiple wild type and mutant bacterial nitroreductases from the NfsA and NfsB families

CS(=O)(=O)c1cc([N+](=O)[O-])c(C(=O)NCCO)cc1N(CCBr)CCBr [compound 301, 5-(bis(2-bromoethyl)amino)-N-(2-hydroxyethyl)-4-(methylsulfonyl)-2-nitrobenzamide]
hypoxia-dependent cytotoxicity [1]: increased cytotoxicity in cells under hypoxia
